System: HUVEC/MSC spheroids viability
Assay: Human HUVEC/MSC cell line growth inhibition [KRAS2];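 as to viability, T/C: percent of DMSO vehicle control luminescence so 100% = untreated viability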
Conditions: for IC50: curve of first compound; for viability, T/C: stronger effect = lower value
Source text: Multicellular complex tumor spheroid response to RAS pathway inhibitors in combination with a targeted agents in patient-derived cell lines with oncogenic KRAS variants from multiple cancer types
A high-throughput screen of multi-cell type tumor spheroids was designed to identify active combinations of targeted small molecules and KRAS pathway inhibitors. Complex spheroids include a stromal component modeled by human endothelial cells (HUVEC) and fibroblasts modeled by human mesenchymal stem cells (MSCs). The concentration ranges selected for each drug and investigational agent were based upon clinically achievable concentrations if the clinical Cmax of the agent was known. * [This particular assayID is a followup dataset requested by reviewers of the manuscript. It is a test of the HUVEC and MSC without the tumor cells, and was conducted using different drug plates and a different plate layout.]
Compounds. The drugs and investigational agents: BI-3406 (NSC825286), BAY-293 (NSC824723), batoprotafib (TNO155; NSC825523), sotorasib (AMG 510; NSC818433), MRTX1257 (NSC819558), elimusertib (BAY 1895344; NSC800525), molibresib (GSK525762; NSC774829), temuterkib (LY3214996; NSC803410), venetoclax (NSC766270), alisertib (NSC759677), olaparib (NSC753686), talazoparib (NSC767125), erdafitinib (NSC781556), ipatasertib (NSC767898), cabozantinib (NSC761068), nintedanib (NSC756659), abemaciclib (NSC768073), docetaxel (NSC628503), trametinib (NSC758246), and sapanisertib (NSC764658) were obtained from the National Cancer Institute (NCI) Developmental Therapeutics Program Chemical Repository. The FDA-approved anticancer drug set is available from the Developmental Therapeutics Program. […] The stock solutions were prepared in dimethyl sulfoxide (DMSO, Sigma-Aldrich, St. Louis, MO, cat. D2650) at 800-fold the tested concentration and stored at -70 degrees C prior to their use. All drugs and investigational agents were tested over a range starting from a high concentration at or near the clinical Cmax and decreasing in half-log increments. If the clinical Cmax for an agent had not been determined, the highest concentration tested was 10 microM.
Cell Culture. All cells were maintained in an incubator at 37 degrees C and 5% CO2 with 95% humidity. The PDC lines were cultured according to standard operating procedures established by the NCI PDMR (https://pdmr.cancer.gov/sops/default.htm). Briefly, all PDCs were thawed and cultured in Matrigel-coated flasks prepared with a working solution of 1X Ham's F-12 nutrient mix, without supplementation (Invitrogen, Waltham, MA, cat. 11765054), 100 U/mL penicillin-streptomycin (Invitrogen, cat. 15140122), and 2.5% Matrigel (Corning Inc., Corning, NY, cat. 354248) for the first three passages. All PDCs were cultured in complete DMEM/F-12 media containing advanced DMEM/F-12 (Invitrogen, cat. 12634028), 4.9% defined fetal bovine serum, heat inactivated (HyClone Laboratories Inc., Logan, UT, cat. SH30070.03HI), 389 ng/mL hydrocortisone (Sigma-Aldrich, cat. H4001), 9.7 ng/mL human EGF recombinant protein (Invitrogen, cat. PHG0313), 23.4 microg/mL adenine (Sigma-Aldrich, cat. A2786), 97.3 U/mL penicillin-streptomycin (Invitrogen, cat. 15140122), 1.9 mM L-glutamine (Invitrogen, cat. 25030081), and 9.7 microM Y-27632 dihydrochloride (Tocris Bioscience, Bristol, United Kingdom, cat. 1254). The PDCs were cultured in complete DMEM/F12 media without 9.7 microM Y-27632 dihydrochloride for at least two passages prior to the screen. The established cell line HOP-62 was cultured in RPMI 1640 medium, HEPES (Invitrogen, cat. 22400105) with 10% defined fetal bovine serum (HyClone Laboratories Inc., cat. SH30070.03) and 2 mM L-glutamine (Invitrogen, cat. 25030081). The pooled donor HUVEC were cultured in endothelial cell growth medium 2 (PromoCell, Heidelberg, Germany, cat. C-22011) and the hMSC were cultured in mesenchymal stem cell growth medium 2 (PromoCell, cat. C-28009). […]

CC(=O)OC12COC1CC(O)C1(C)C(=O)C(O)C3=C(C)C(OC(=O)C(O)C(NC(=O)OC(C)(C)C)c4ccccc4)CC(O)(C(OC(=O)c4ccccc4)C21)C3(C)C (centres undefined) + C=CC(=O)N1CCN(c2nc(=O)n(-c3c(C)ccnc3C(C)C)c3nc(-c4c(O)cccc4F)c(F)cc23)C(C)C1
IC50 (second compound 0.0316 µM): > 3 µM
IC50 (second compound 0.1 µM): > 3 µM
IC50 (second compound 0.316 µM): > 3 µM
IC50 (second compound 1 µM): > 3 µM
IC50 (second compound 3.16 µM): > 3 µM
IC50 (second compound 10 µM): > 3 µM
viability, T/C (second compound 0.0316 µM, first compound 0.00949 µM): 57.6%
viability, T/C (second compound 0.0316 µM, first compound 0.03 µM): 67.8%
viability, T/C (second compound 0.0316 µM, first compound 0.0949 µM): 47.2%
viability, T/C (second compound 0.0316 µM, first compound 0.3 µM): 41.4%
viability, T/C (second compound 0.0316 µM, first compound 0.949 µM): 63%
viability, T/C (second compound 0.0316 µM, first compound 3 µM): 55.2%
viability, T/C (second compound 0.1 µM, first compound 0.00949 µM): 65.5%
viability, T/C (second compound 0.1 µM, first compound 0.03 µM): 52.8%
viability, T/C (second compound 0.1 µM, first compound 0.0949 µM): 57.4%
viability, T/C (second compound 0.1 µM, first compound 0.3 µM): 54.1%
viability, T/C (second compound 0.1 µM, first compound 0.949 µM): 57.3%
viability, T/C (second compound 0.1 µM, first compound 3 µM): 63.7%
viability, T/C (second compound 0.316 µM, first compound 0.00949 µM): 54.5%
viability, T/C (second compound 0.316 µM, first compound 0.03 µM): 58.9%
viability, T/C (second compound 0.316 µM, first compound 0.0949 µM): 61.6%
viability, T/C (second compound 0.316 µM, first compound 0.3 µM): 57.5%
viability, T/C (second compound 0.316 µM, first compound 0.949 µM): 65%
viability, T/C (second compound 0.316 µM, first compound 3 µM): 70.3%
viability, T/C (second compound 1 µM, first compound 0.00949 µM): 57.1%
viability, T/C (second compound 1 µM, first compound 0.03 µM): 61.4%
viability, T/C (second compound 1 µM, first compound 0.0949 µM): 59.2%
viability, T/C (second compound 1 µM, first compound 0.3 µM): 59.8%
viability, T/C (second compound 1 µM, first compound 0.949 µM): 62.9%
viability, T/C (second compound 1 µM, first compound 3 µM): 67.9%
viability, T/C (second compound 3.16 µM, first compound 0.00949 µM): 66%
viability, T/C (second compound 3.16 µM, first compound 0.03 µM): 82.4%
viability, T/C (second compound 3.16 µM, first compound 0.0949 µM): 64.8%
viability, T/C (second compound 3.16 µM, first compound 0.3 µM): 84.4%
viability, T/C (second compound 3.16 µM, first compound 0.949 µM): 83.4%
viability, T/C (second compound 3.16 µM, first compound 3 µM): 101%
viability, T/C (second compound 10 µM, first compound 0.00949 µM): 100%
viability, T/C (second compound 10 µM, first compound 0.03 µM): 113%
viability, T/C (second compound 10 µM, first compound 0.0949 µM): 122%
viability, T/C (second compound 10 µM, first compound 0.3 µM): 113%
viability, T/C (second compound 10 µM, first compound 0.949 µM): 111%
viability, T/C (second compound 10 µM, first compound 3 µM): 124%

O=C(c1cc(Cc2n[nH]c(=O)c3ccccc23)ccc1F)N1CCN(C(=O)C2CC2)CC1 + CNCc1ccccc1-c1csc(C(C)Nc2nc(C)nc3cc(OC)c(OC)cc23)c1
IC50 (second compound 0.0316 µM): > 10 µM
IC50 (second compound 0.1 µM): > 10 µM
IC50 (second compound 0.316 µM): > 10 µM
IC50 (second compound 1 µM): > 10 µM
IC50 (second compound 3.16 µM): > 10 µM
IC50 (second compound 10 µM): < 0.0316 µM
viability, T/C (second compound 0.0316 µM, first compound 0.0316 µM): 95.6%
viability, T/C (second compound 0.0316 µM, first compound 0.1 µM): 92.6%
viability, T/C (second compound 0.0316 µM, first compound 0.316 µM): 93.1%
viability, T/C (second compound 0.0316 µM, first compound 1 µM): 84.2%
viability, T/C (second compound 0.0316 µM, first compound 3.16 µM): 80.3%
viability, T/C (second compound 0.0316 µM, first compound 10 µM): 72%
viability, T/C (second compound 0.1 µM, first compound 0.0316 µM): 87.1%
viability, T/C (second compound 0.1 µM, first compound 0.1 µM): 91.4%
viability, T/C (second compound 0.1 µM, first compound 0.316 µM): 92.1%
viability, T/C (second compound 0.1 µM, first compound 1 µM): 78.2%
viability, T/C (second compound 0.1 µM, first compound 3.16 µM): 81.9%
viability, T/C (second compound 0.1 µM, first compound 10 µM): 96%
viability, T/C (second compound 0.316 µM, first compound 0.0316 µM): 84.6%
viability, T/C (second compound 0.316 µM, first compound 0.1 µM): 92.2%
viability, T/C (second compound 0.316 µM, first compound 0.316 µM): 76.7%
viability, T/C (second compound 0.316 µM, first compound 1 µM): 92.3%
viability, T/C (second compound 0.316 µM, first compound 3.16 µM): 89.8%
viability, T/C (second compound 0.316 µM, first compound 10 µM): 93.9%
viability, T/C (second compound 1 µM, first compound 0.0316 µM): 70%
viability, T/C (second compound 1 µM, first compound 0.1 µM): 84.7%
viability, T/C (second compound 1 µM, first compound 0.316 µM): 85.5%
viability, T/C (second compound 1 µM, first compound 1 µM): 81.1%
viability, T/C (second compound 1 µM, first compound 3.16 µM): 78%
viability, T/C (second compound 1 µM, first compound 10 µM): 104%
viability, T/C (second compound 3.16 µM, first compound 0.0316 µM): 95.7%
viability, T/C (second compound 3.16 µM, first compound 0.1 µM): 87.8%
viability, T/C (second compound 3.16 µM, first compound 0.316 µM): 98.2%
viability, T/C (second compound 3.16 µM, first compound 1 µM): 105%
viability, T/C (second compound 3.16 µM, first compound 3.16 µM): 92.3%
viability, T/C (second compound 3.16 µM, first compound 10 µM): 95.8%
viability, T/C (second compound 10 µM, first compound 0.0316 µM): 0.39%
viability, T/C (second compound 10 µM, first compound 0.1 µM): 0.43%
viability, T/C (second compound 10 µM, first compound 0.316 µM): 0.37%
viability, T/C (second compound 10 µM, first compound 1 µM): 0.34%
viability, T/C (second compound 10 µM, first compound 3.16 µM): 0.39%
viability, T/C (second compound 10 µM, first compound 10 µM): 0.41%

From PubChem BioAssay AID2060912 (Molecular Pharmacology Branch, DTP, NCI, 2025)
